Patent US20210369812A1, “OSTEOINDUCTIVE PEPTIDES, COMPOSITIONS, IMPLANTS, AND METHODS OF USE” (The Board of Regents of the University of Oklahoma, priority 2018, published 2021)

Tests used:
BMPR2 = target: T1, BMPR2 (Homo sapiens, UniProt Q13873); assay: Enzyme-linked immune sorbent assay for receptor binding (BMPR2); details: peptide on p3 of M13 phage; absorbance 450 nm; n=4; vs wild type phage
T1 construct: purchased G&P Biosciences
T1 sequence (Q13873 27-150 limits assumed): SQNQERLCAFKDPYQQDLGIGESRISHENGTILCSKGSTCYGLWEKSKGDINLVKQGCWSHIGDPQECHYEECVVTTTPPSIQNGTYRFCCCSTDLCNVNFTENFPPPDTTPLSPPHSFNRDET
Excerpt: Groups having the same lowercase letter assigned (above the bar) were not statistically different from each other. Groups having different letters assigned (above the bar) were statistically different from each other. […] The primary antibody was mouse anti-g3p (p8) IgG. The secondary antibody was anti-mouse IgG conjugated with horseradish peroxidase. The substrate, 3,3′,5,5′-Tetramethylbenzidine was detected at 450 nm after stopping the reaction with 1 M HCl.
Blocking buffer (0.1 M NaHCO3 (pH 8.6), 5 mg/ml BSA. Filter sterilized, stored at 4° C.) was prepared. TBS (50 mM Tris-HCl (pH 7.5), 150 mM NaCl, autoclaved, stored at room temperature) was prepared. Separate solutions of the target receptors were then made. For BMPR1A, a 10 μg/ml stock solution was made. For BMPR2, a 10 μg/ml solution was also made. Separate wells with n=4 for each different peptide bearing phage group were then coated with one of the receptors. […] After a brief pilot test, it should be noted that using 10^10 phage/ml was determined to work best, but other concentrations of virus also worked consistently. […] Then, […] of freshly prepared 3,3′,5,5′-Tetramethylbenzidine (TMB) was added to each well and the absorbance at 370 nm and 652 nm was monitored for 1 hour using an ELISA plate reader. […] The absorbance at 450 nm for each well was then measured.

hMSCs = assay: Immunofluorescence of osteoblast marker proteins; type: cell-based, human; details: hMSCs on phage films, 26 days, basal media
Excerpt: OPN was detected with the primary antibody for OPN (RbpAB to osteopontin ab8448 from Abcam). The secondary antibody used was Goat Anti-Rabbit IgG H&L (Alexa Fluor 555) (ab150078) from Abcam (red). OCN was detected with the primary antibody for OCN [OC4-30] (ab13418) from Abcam). The secondary antibody used was Goat Anti-Mouse IgG H&L (Dylight 650) preadsorbed from abcam ab96882 (red). COL was detected using a primary antibody for COL (RbpAb to collagen 1 ab34710). The secondary antibody used was Goat Anti-Rabbit IgG H&L (Alexa Fluor 555) (ab150078) from abcam (red). Cell nuclei were stained by DAPI (blue) for all samples, and actin was stained by phalloidin (green).
This procedure can be scaled for any size well plates or petri dish, but the volumes included are for 96-well tissue culture plates. […]
After culturing hMSCs on phage films for 26 days, the cells were fixed with 4% paraformaldehyde (10 min) and permeabilized with 0.2% Triton X-100 (2 min) at room temperature. […] The osteogenic protein markers osteopontin (OPN), osteocalcin (OCN), and collagen type 1A (COL) were detected through immunofluorescence. OPN was detected with the primary antibody for OPN (RbpAB to osteopontin ab8448 from Abcam). […] OCN was detected with the primary antibody for OCN [OC4-30] […] COL was detected using a primary antibody for COL (RbpAb to collagen 1 ab34710). […]

Sequence | Relative binding strength in ELISA to BMPR2 (BMPR2) | Osteocalcin protein expression (immunofluorescence) (hMSCs) | Osteopontin protein expression (immunofluorescence) (hMSCs)
SGTQDSMVGWNK (Completely synthesized in the lab - Ph.D.-12 Phage Display Peptide Library Kit (New England Biolabs)) | statistically significant binders | – | –
VHVPLHRGAVSA (Completely synthesized in the lab - Ph.D.-12 Phage Display Peptide Library Kit (New England Biolabs)) | – | slightly greater osteocalcin production | qualitatively higher level of osteopontin protein expression than the other groups and a higher expression than the positive control
